How the values were obtained:
Type in all cases: in vivo
Kochia (Kochia scoparia) [1] = experiment: Test A preemergence; details: for Plant response rating, Kochia: 125 g ai/ha; for Kochia plant response rating (0 to 100 scale, 0 is no effect, 100 is complete control): 500 g ai/ha, visual injury approx. 10 d
Method in brief: (§1)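 Visual injury, scored on a 0–100 scale relative to untreated controls, was recorded about 10 d after application. Treatments were a preemergence soil spray over planted seeds or a postemergence spray on plants at the one- to two-leaf stage, 2 to 10 cm tall, all in loam soil–sand blend in the greenhouse.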

[2] = system: barnyardgrass (Echinochloa crus-galli); experiment: Test A preemergence; details: for Plant response rating, Barnyardgrass: 125 g ai/ha; for Barnyardgrass plant response rating (0 to 100 scale, 0 is no effect, 100 is complete control): 500 g ai/ha, visual injury approx. 10 d
Method in brief: as §1

[3] = system: giant foxtail (Setaria faberii); experiment: Test A preemergence; details: for Plant response rating, Foxtail, Giant: 125 g ai/ha; for Foxtail, Giant plant response rating (0 to 100 scale, 0 is no effect, 100 is complete control): 500 g ai/ha, visual injury approx. 10 d
Method in brief: as §1

[4] = system: pigweed (Amaranthus retroflexus); experiment: Test A preemergence; details: for Plant response rating, Pigweed: 125 g ai/ha; for Pigweed plant response rating (0 to 100 scale, 0 is no effect, 100 is complete control): 500 g ai/ha, visual injury approx. 10 d
[5] = system: ragweed (common ragweed, Ambrosia elatior); experiment: Test A preemergence; details: for Plant response rating, Ragweed: 125 g ai/ha; for Ragweed plant response rating (0 to 100 scale, 0 is no effect, 100 is complete control): 500 g ai/ha, visual injury approx. 10 d
Method in brief: as §1

[6] = system: ryegrass, Italian (Italian ryegrass, Lolium multiflorum); experiment: Test A preemergence; details: for Plant response rating, Ryegrass, Italian: 125 g ai/ha; for Ryegrass, Italian plant response rating (0 to 100 scale, 0 is no effect, 100 is complete control): 500 g ai/ha, visual injury approx. 10 d
Method in brief: as §1

[7] = system: Galium (catchweed bedstraw, Galium aparine); experiment: Test A postemergence; details: for Galium plant response rating: 125 g ai/ha, visual injury rating on 0 to 100 scale (0 no effect, 100 complete control), approx. 10 d; for Plant response rating, Galium: 500 g ai/ha
Method in brief: as §1

Kochia (Kochia scoparia) [8] = experiment: Test A postemergence; details: for Kochia plant response rating: 125 g ai/ha, visual injury rating on 0 to 100 scale (0 no effect, 100 complete control), approx. 10 d; for Plant response rating, Kochia: 500 g ai/ha
Method in brief: as §1

[9] = system: barnyardgrass (Echinochloa crus-galli); experiment: Test A postemergence; details: for Barnyardgrass plant response rating: 125 g ai/ha, visual injury rating on 0 to 100 scale (0 no effect, 100 complete control), approx. 10 d; for Plant response rating, Barnyardgrass: 500 g ai/ha
Method in brief: as §1

[10] = system: blackgrass (Alopecurus myosuroides); experiment: Test A postemergence; details: for Blackgrass plant response rating: 125 g ai/ha, visual injury rating on 0 to 100 scale (0 no effect, 100 complete control), approx. 10 d; for Plant response rating, Blackgrass: 500 g ai/ha
Method in brief: as §1

corn (Zea mays) = experiment: Test A postemergence; details: for Corn plant response rating: 125 g ai/ha, visual injury rating on 0 to 100 scale (0 no effect, 100 complete control), approx. 10 d; for Plant response rating, Corn: 500 g ai/ha
Method in brief: as §1

[11] = system: giant foxtail (Setaria faberii); experiment: Test A postemergence; details: for Foxtail, Giant plant response rating: 125 g ai/ha, visual injury rating on 0 to 100 scale (0 no effect, 100 complete control), approx. 10 d; for Plant response rating, Foxtail, Giant: 500 g ai/ha
Method in brief: as §1

[12] = system: pigweed (Amaranthus retroflexus); experiment: Test A postemergence; details: for Pigweed plant response rating: 125 g ai/ha, visual injury rating on 0 to 100 scale (0 no effect, 100 complete control), approx. 10 d; for Plant response rating, Pigweed: 500 g ai/ha
Method in brief: as §1

[13] = system: ragweed (common ragweed, Ambrosia elatior); experiment: Test A postemergence; details: for Ragweed plant response rating: 125 g ai/ha, visual injury rating on 0 to 100 scale (0 no effect, 100 complete control), approx. 10 d; for Plant response rating, Ragweed: 500 g ai/ha
Method in brief: as §1

[14] = system: ryegrass, Italian (Italian ryegrass, Lolium multiflorum); experiment: Test A postemergence; details: for Ryegrass, Italian plant response rating: 125 g ai/ha, visual injury rating on 0 to 100 scale (0 no effect, 100 complete control), approx. 10 d; for Plant response rating, Ryegrass, Italian: 500 g ai/ha
Method in brief: as §1

[15] = system: wheat (Triticum aestivum); experiment: Test A postemergence; details: for Wheat plant response rating: 125 g ai/ha, visual injury rating on 0 to 100 scale (0 no effect, 100 complete control), approx. 10 d; for Plant response rating, Wheat: 500 g ai/ha
Method in brief: as §1

[16] = system: barnyardgrass (Echinochloa crus-galli); experiment: Test B flooded paddy test; details: Flood, 0 to 100 scale where 0 is no effect and 100 is complete control, 13 to 15 d
Method in brief: (§2)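 Response scored visually against untreated controls, 0 = no effect and 100 = complete control, 13–15 d after treatment in the greenhouse. Compounds added to paddy water held 3 cm above soil surface. Treatment given at 2-leaf stage.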

[17] = system: ducksalad (Heteranthera limosa); experiment: Test B flooded paddy test; details: Flood, 0 to 100 scale where 0 is no effect and 100 is complete control, 13 to 15 d
Method in brief: as §2

rice (Oryra sativa) = experiment: Test B flooded paddy test; details: Flood, 0 to 100 scale where 0 is no effect and 100 is complete control, 13 to 15 d
Method in brief: as §2

[18] = system: sedge, umbrella (small-flower umbrella sedge, Cyperus difformis); experiment: Test B flooded paddy test; details: Flood, 0 to 100 scale where 0 is no effect and 100 is complete control, 13 to 15 d
Method in brief: as §2

[19] = preemergence, 0 to 100 scale (0 no effect, 100 complete control)
[20] = Preemergence, visual injury after approximately 10 d, 0 to 100 scale where 0 is no effect and 100 is complete control
[21] = Postemergence, 0 to 100 scale where 0 is no effect and 100 is complete control
[22] = postemergence, 0 to 100 scale, 0 no effect, 100 complete control

| Compound | Plant response rating, Kochia (Kochia (Kochia scoparia) [1]; [19]) | Kochia plant response rating (0 to 100 scale, 0 is no effect, 100 is complete control) (Kochia (Kochia scoparia) [1]; Preemergence) | Plant response rating, Barnyardgrass [2, 19] | Barnyardgrass plant response rating (0 to 100 scale, 0 is no effect, 100 is complete control) ([2]; Preemergence) | Plant response rating, Foxtail, Giant [3, 19] | Foxtail, Giant plant response rating (0 to 100 scale, 0 is no effect, 100 is complete control) ([3]; Preemergence) | Pigweed plant response rating (0 to 100 scale, 0 is no effect, 100 is complete control) ([4]; Preemergence) | Ragweed plant response rating (0 to 100 scale, 0 is no effect, 100 is complete control) ([5]; Preemergence) | Ryegrass, Italian plant response rating (0 to 100 scale, 0 is no effect, 100 is complete control) ([6]; Preemergence) | Galium plant response rating ([7]; postemergence) | Kochia plant response rating (Kochia (Kochia scoparia) [8]; postemergence) | Barnyardgrass plant response rating ([9]; postemergence) | Plant response rating, Barnyardgrass [9, 22] | Blackgrass plant response rating ([10]; postemergence) | Corn plant response rating (corn (Zea mays); postemergence) | Foxtail, Giant plant response rating ([11]; postemergence) | Pigweed plant response rating ([12]; postemergence) | Ragweed plant response rating ([13]; postemergence) | Ryegrass, Italian plant response rating ([14]; postemergence) | Wheat plant response rating ([15]; postemergence) | also measured |
| --- | --- | --- | --- | --- | --- | --- | --- | --- | --- | --- | --- | --- | --- | --- | --- | --- | --- | --- | --- | --- | --- |
| CN1CC(c2ccc(C(F)(F)F)cc2F)C(C(=O)Nc2cccc(F)c2F)C1=O (stereo not drawn) [Compound 472] | 80 | 80 | 90 | 90 | 90 | 90 | 90 | 50 | 80 | 50 | 60 | 90 | 90 | 30 | 40 | 80 | 60 | 0 | 40 | 30 | Plant response rating, Pigweed [4, 20]: 80; Plant response rating, Ragweed [5, 20]: 0; Plant response rating, Ryegrass, Italian [6, 20]: 50; Plant response rating, Galium [7, 21]: 50; Plant response rating, Kochia (Kochia (Kochia scoparia) [8]; [21]): 70; Plant response rating, Blackgrass [10, 22]: 60; Plant response rating, Corn (corn (Zea mays); [22]): 80; Plant response rating, Foxtail, Giant [11, 21]: 90; Plant response rating, Pigweed [12, 21]: 60; Plant response rating, Ragweed [13, 21]: 0; Plant response rating, Ryegrass, Italian [14, 21]: 60; Plant response rating, Wheat [15, 21]: 60; Plant response rating, Barnyardgrass ([16]; 250 g ai/ha): 60; Plant response rating, Ducksalad ([17]; 250 g ai/ha): 75; Plant response rating, Rice (rice (Oryra sativa); 250 g ai/ha): 20; Plant response rating, Sedge, Umbrella ([18]; 250 g ai/ha): 0 |
| COc1cccc(NC(=O)C2C(=O)NCC2c2cccc(OC(F)F)c2)c1F (stereo not drawn) [Compound 426] | 0 | 0 | 50 | 80 | 80 | 90 | 30 | 0 | 0 | 0 | 0 | 30 | 70 | 0 | 0 | 20 | 0 | 0 | 0 | 0 | Plant response rating, Pigweed [4, 19]: 0; Plant response rating, Ragweed [5, 19]: 0; Plant response rating, Ryegrass, Italian [6, 19]: 0; Plant response rating, Galium [7, 22]: 0; Plant response rating, Kochia (Kochia (Kochia scoparia) [8]; [22]): 0; Plant response rating, Blackgrass [10, 22]: 0; Plant response rating, Corn (corn (Zea mays); [22]): 0; Plant response rating, Foxtail, Giant [11, 22]: 60; Plant response rating, Pigweed [12, 22]: 0; Plant response rating, Ragweed [13, 22]: 0; Plant response rating, Ryegrass, Italian [14, 22]: 0; Plant response rating, Wheat [15, 22]: 0; Plant response rating, Barnyardgrass ([16]; 500 g ai/ha): 0; Plant response rating, Ducksalad ([17]; 500 g ai/ha): 40; Plant response rating, Rice (rice (Oryra sativa); 500 g ai/ha): 0; Plant response rating, Sedge, Umbrella ([18]; 500 g ai/ha): 0 |
| O=C1NCC(c2cccc(OC(F)F)c2)C1C(=O)Nc1ccccc1OC(F)F (stereo not drawn) [Compound 427] | 30 | 80 | 40 | 90 | 90 | 90 | 40 | 40 | 30 | 40 | 0 | 60 | 80 | 20 | 0 | 50 | 0 | 0 | 0 | 0 | Plant response rating, Pigweed [4, 19]: 0; Plant response rating, Ragweed [5, 19]: 0; Plant response rating, Ryegrass, Italian [6, 19]: 0; Plant response rating, Galium [7, 22]: 50; Plant response rating, Kochia (Kochia (Kochia scoparia) [8]; [22]): 20; Plant response rating, Blackgrass [10, 22]: 40; Plant response rating, Corn (corn (Zea mays); [22]): 20; Plant response rating, Foxtail, Giant [11, 22]: 80; Plant response rating, Pigweed [12, 22]: 0; Plant response rating, Ragweed [13, 22]: 20; Plant response rating, Ryegrass, Italian [14, 22]: 20; Plant response rating, Wheat [15, 22]: 20; Plant response rating, Barnyardgrass ([16]; 500 g ai/ha): 40; Plant response rating, Ducksalad ([17]; 500 g ai/ha): 100; Plant response rating, Rice (rice (Oryra sativa); 500 g ai/ha): 0; Plant response rating, Sedge, Umbrella ([18]; 500 g ai/ha): 0 |
| O=C1NCC(c2c(F)cccc2F)C1C(=O)Nc1cccc(F)c1F (racemic) [Compound 516] | – | 0 | – | 80 | – | 90 | 0 | 0 | 0 | 0 | 0 | 0 | – | 0 | 0 | 0 | 0 | 0 | 0 | 0 | Plant response rating, Kochia (Kochia (Kochia scoparia) [1]; [20]): 0; Plant response rating, Barnyardgrass [2, 20]: 40; Plant response rating, Foxtail, Giant [3, 20]: 70; Plant response rating, Pigweed [4, 20]: 0; Plant response rating, Ragweed [5, 20]: 0; Plant response rating, Ryegrass, Italian [6, 20]: 0; Plant response rating, Galium [7, 21]: 0; Plant response rating, Kochia (Kochia (Kochia scoparia) [8]; [21]): 0; Plant response rating, Barnyardgrass [9, 21]: 70; Plant response rating, Blackgrass [10, 21]: 0; Plant response rating, Corn (corn (Zea mays); [21]): 0; Plant response rating, Foxtail, Giant [11, 21]: 70; Plant response rating, Pigweed [12, 21]: 0; Plant response rating, Ragweed [13, 21]: 0; Plant response rating, Ryegrass, Italian [14, 21]: 0; Plant response rating, Wheat [15, 21]: 0; Plant response rating, Barnyardgrass ([16]; 250 g ai/ha): 0; Plant response rating, Ducksalad ([17]; 250 g ai/ha): 0; Plant response rating, Rice (rice (Oryra sativa); 250 g ai/ha): 0; Plant response rating, Sedge, Umbrella ([18]; 250 g ai/ha): 0 |

— patent US12077503B2, “Substituted cyclic amides and their use as herbicides” (FMC CORPORATION, priority 2015, dated 2024)
